# Test results as given in the Kinase Knowledgebase extract (Sharma et al. 2016).
# Molecular target: PIK3CB;PIK3CG;PIK3CD;PIK3CA (human) (UniProt P48736)
# Assay: Inhibition of PIK3CA/PIK3CB/PIK3CD/PIK3CG Kinase Activity
row,SMILES,IC50 [nM]
1,COc1ccc(CCCO)c(Nc2nc3ccccc3nc2NS(=O)(=O)CCCS(C)(=O)=O)c1,120
2,COc1ccc(CCS(C)(=O)=O)c(Nc2nc3ccccc3nc2NS(=O)(=O)CCCSC)c1,140
3,COc1ccc(CCO)c(Nc2nc3ccccc3nc2NS(=O)(=O)c2ccc(OCCO)cc2)c1,34
4,COc1ccc(CCO)c(Nc2nc3ccccc3nc2NS(=O)(=O)c2ccc(CN3CCC(F)CC3)cc2)c1,43
5,CCS(=O)(=O)Nc1nc2ccccc2nc1Nc1cc(OC)ccc1CCO,60
6,COC(=O)CCc1ccc(S(=O)(=O)Nc2nc3ccccc3nc2Nc2cc(OC)ccc2CCO)cc1,70
7,COc1ccc(CCCO)c(Nc2nc3ccccc3nc2NS(=O)(=O)c2cccc(NC(=O)CO)c2)c1,12
8,CCCS(=O)(=O)Nc1nc2ccccc2nc1Nc1cc(OC)ccc1CCS(C)(=O)=O,87
9,COc1ccc(CC2CCN(C(C)=O)CC2)c(Nc2nc3ccccc3nc2NS(=O)(=O)c2cn(C)cn2)c1,89
10,COC(=O)c1ccc(OC)cc1Nc1nc2ccccc2nc1NS(C)(=O)=O,1650
11,CC#N.COc1ccc(CCCO)c(Nc2nc3ccccc3nc2NS(=O)(=O)c2cn(C)cn2)c1,21
12,COc1ccc(CC2CCCCC2)c(Nc2nc3ccccc3nc2NS(=O)(=O)c2ccc(CN(C)C)cc2)c1,760
13,COc1ccc(CN2CCN(C)CC2)c(Nc2nc3ccccc3nc2NS(=O)(=O)c2ccc(F)cc2)c1,110
14,COc1ccc(CCO)c(Nc2nc3ccccc3nc2NS(=O)(=O)c2ccc(C)[n+]([O-])c2)c1,106
15,COc1cc(Nc2nc3ccccc3nc2NS(=O)(=O)c2cn(C)cn2)cc(C(=O)N(C)C)c1,760
16,COc1ccc(CC2CCCC2)c(Nc2nc3ccccc3nc2NS(=O)(=O)c2cn(C)cn2)c1,180
17,COc1ccc(CCS(C)(=O)=O)c(Nc2nc3ccccc3nc2NS(=O)(=O)c2cn(C)c(CN(C)C)n2)c1,87
18,CCCS(=O)(=O)Nc1nc2ccccc2nc1Nc1cc(OC)ccc1CCCO,49
19,COc1ccc(CN2CCOCC2)c(Nc2nc3ccccc3nc2NS(=O)(=O)c2cccnc2)c1,72
20,COc1ccc(CCO)c(Nc2nc3ccccc3nc2NS(=O)(=O)CCCSC)c1,75

row,SMILES,IC50 [nM]
1,COc1ccc(CC2CCN(C)CC2)c(Nc2nc3ccccc3nc2NS(C)(=O)=O)c1,110
2,COc1ccc(CCO)c(Nc2nc3ccccc3nc2NS(=O)(=O)c2ccc(C(=O)N(C)C)cc2)c1,250
3,COc1ccc(CCCO)c(Nc2nc3ccccc3nc2NS(=O)(=O)c2ccc(NC(=O)CN(C)C)cc2)c1,32
4,COc1ccc(CCCO)c(Nc2nc3ccccc3nc2NS(=O)(=O)C2CCS(=O)(=O)C2)c1 (configuration not stated),130
5,COc1ccc(CCO)c(Nc2nc3ccccc3nc2NS(=O)(=O)c2ccc(CCCO)cc2)c1,36
6,COc1ccc(CCCO)c(Nc2nc3ccccc3nc2NS(=O)(=O)c2cccc(NC(=O)CN(C)C)c2)c1,30
7,COc1ccc(CC2CCS(=O)(=O)CC2)c(Nc2nc3ccccc3nc2NS(=O)(=O)c2ccc(CN(C)C)cc2)c1,10
8,COc1cc(CN2CCN(C)CC2)cc(Nc2nc3ccccc3nc2NS(=O)(=O)c2cccnc2)c1,970
9,COc1ccc(CCCO)c(Nc2nc3ccccc3nc2NS(=O)(=O)C2CCNCC2)c1,26
10,COc1ccc(CC2CCSCC2)c(Nc2nc3ccccc3nc2NS(=O)(=O)c2cn(C)cn2)c1,100
11,COc1ccc(CC2CCN(S(C)(=O)=O)CC2)c(Nc2nc3ccccc3nc2NS(=O)(=O)c2cn(C)cn2)c1,160
12,COc1ccc(CC2CCCCC2)c(Nc2nc3ccccc3nc2NS(=O)(=O)c2cn(C)cn2)c1,450
13,COc1ccc(C(CO)CO)c(Nc2nc3ccccc3nc2NS(=O)(=O)c2cn(C)cn2)c1,550
14,COc1ccc(CC2CCN(C)CC2)c(Nc2nc3ccccc3nc2NS(=O)(=O)c2cn(C)cn2)c1,43
15,COCCNC(=O)c1cc(Nc2nc3ccccc3nc2NS(=O)(=O)c2cn(C)cn2)cc(OC)c1,400
16,COc1ccc(CCS(C)(=O)=O)c(Nc2nc3ccccc3nc2NS(=O)(=O)CCCS(C)(=O)=O)c1,350
17,COc1ccc(CC2C[C@H]3CC[C@@H](C2)N3C)c(Nc2nc3ccccc3nc2NS(=O)(=O)c2cn(C)cn2)c1 (some centres not stated),110
18,COCCc1ccc(OC)cc1Nc1nc2ccccc2nc1NS(=O)(=O)C1CCN(C(C)=O)CC1,300
19,COc1cc(Nc2nc3ccccc3nc2NS(C)(=O)=O)cc(C(=O)N2CCOCC2)c1,5620
20,COc1ccc(CCCO)c(Nc2nc3ccccc3nc2NS(=O)(=O)c2c(C)noc2C)c1,130

row,SMILES,IC50 [nM]
1,COc1ccc(CCS(C)(=O)=O)c(Nc2nc3ccccc3nc2NS(=O)(=O)c2ccccc2)c1,42
2,COc1ccc(CCCO)c(Nc2nc3ccccc3nc2NS(C)(=O)=O)c1,64
3,CCCCO.COCCc1ccc(OC)cc1Nc1nc2ccccc2nc1NS(=O)(=O)c1cn(C)cn1,83
4,COc1ccc(CC2CCCCC2)c(Nc2nc3ccccc3nc2NS(=O)(=O)c2cccnc2)c1,490
5,CCS(=O)(=O)Nc1nc2ccccc2nc1Nc1cc(OC)ccc1CCS(C)(=O)=O,88
6,COc1ccc(CCO)c(Nc2nc3ccccc3nc2NS(=O)(=O)c2cn(C)cn2)c1,48
7,COc1ccc(CC(O)CO)c(Nc2nc3ccccc3nc2NS(=O)(=O)c2cn(C)cn2)c1 (configuration not stated),120
8,COc1ccc(CCO)c(Nc2nc3ccccc3nc2NS(=O)(=O)C2CCS(=O)(=O)C2)c1 (configuration not stated),86
9,COc1ccc(CCCN(C)C)c(Nc2nc3ccccc3nc2NS(=O)(=O)c2cn(C)cn2)c1,11
10,COc1ccc(CC2CCC(O)CC2)c(Nc2nc3ccccc3nc2NS(=O)(=O)c2ccc(CN(C)C)cc2)c1 (configuration not stated),26
11,COc1ccc(CC2CCC(O)CC2)c(Nc2nc3ccccc3nc2NS(=O)(=O)c2cn(C)cn2)c1 (configuration not stated),18
12,COc1ccc(CC2CCSCC2)c(Nc2nc3ccccc3nc2NS(=O)(=O)c2ccc(CN(C)C)cc2)c1,35
13,COc1ccc(CC2CCN(C)CC2)c(Nc2nc3ccccc3nc2NS(=O)(=O)c2cccnc2)c1,45
14,COc1ccc(CC2CCOCC2)c(Nc2nc3ccccc3nc2NS(=O)(=O)c2cn(C)cn2)c1,49
15,COC(=O)c1ccc(OC)cc1Nc1nc2ccccc2nc1NS(=O)(=O)c1cn(C)cn1,21
16,COc1ccc(CCO)c(Nc2nc3ccccc3nc2NS(=O)(=O)c2cccnc2)c1,40
17,COc1cc(Nc2nc3ccccc3nc2NS(=O)(=O)c2cccnc2)cc(C(=O)N2CCOCC2)c1,3100
18,COc1ccc(CCS(C)(=O)=O)c(Nc2nc3ccccc3nc2NS(=O)(=O)C(C)C)c1,160
19,COc1ccc(CCO)c(Nc2nc3ccccc3nc2NS(=O)(=O)CCCS(C)(=O)=O)c1,120

# Further compounds by falling IC50, results first:
row,IC50 [nM],SMILES
1,3340,COc1cc(Nc2nc3ccccc3nc2NS(=O)(=O)c2cccnc2)cc(C(=O)N2CCN(C)CC2)c1
2,1100,COc1cc(CN(C)C)cc(Nc2nc3ccccc3nc2NS(=O)(=O)c2cn(C)cn2)c1
3,480,COc1ccc(CCCO)c(Nc2nc3ccccc3nc2NS(=O)(=O)c2cccc(NC(=O)COCc3ccccc3)c2)c1
4,420,COc1ccc(CC2CC(C)(C)N(C)C(C)(C)C2)c(Nc2nc3ccccc3nc2NS(=O)(=O)c2cn(C)cn2)c1
5,350,COc1cc(Nc2nc3ccccc3nc2NS(=O)(=O)CCCS(C)(=O)=O)cc(C(=O)NCCO)c1
6,300,COc1ccc(S(=O)(=O)NCCO)c(Nc2nc3ccccc3nc2NS(=O)(=O)CCCS(C)(=O)=O)c1
7,286,COc1ccc(CCO)c(Nc2nc3ccccc3nc2NS(=O)(=O)c2c(C)noc2C)c1
8,200,COCCc1ccc(OC)cc1Nc1nc2ccccc2nc1NS(=O)(=O)c1cn(C)c(CS(C)(=O)=O)n1
9,200,COc1ccc(CCS(C)(=O)=O)c(Nc2nc3ccccc3nc2NS(C)(=O)=O)c1
10,190,COc1ccc(CCS(C)(=O)=O)c(Nc2nc3ccccc3nc2NS(=O)(=O)c2c(C)noc2C)c1
11,170,COc1ccc(CC2CCN(C(C)=O)CC2)c(Nc2nc3ccccc3nc2NS(C)(=O)=O)c1
12,150,COc1ccc(CC2CCOCC2)c(Nc2nc3ccccc3nc2NS(=O)(=O)c2ccc(F)cc2)c1
13,100,COc1cc(Nc2nc3ccccc3nc2NS(=O)(=O)c2cn(C)cn2)cc(C(=O)NCCO)c1
14,100,COc1ccc(CC2CCN(C(=O)CN(C)C)CC2)c(Nc2nc3ccccc3nc2NS(=O)(=O)c2cn(C)cn2)c1
15,98,COCCc1ccc(OC)cc1Nc1nc2ccccc2nc1NS(=O)(=O)C1CCNCC1
16,95,COc1ccc(CCO)c(Nc2nc3ccccc3nc2NS(C)(=O)=O)c1
17,88,COC(=O)c1ccc(OC)cc1Nc1nc2ccccc2nc1NS(=O)(=O)c1cccnc1

row,IC50 [nM],SMILES
1,87,COc1ccc(CCCO)c(Nc2nc3ccccc3nc2NS(=O)(=O)c2cn(C)c(CS(C)(=O)=O)n2)c1
2,84,COc1ccc(CCCO)c(Nc2nc3ccccc3nc2NS(=O)(=O)c2cn(C)c(CO)n2)c1
3,72,COc1ccc(CCCO)c(Nc2nc3ccccc3nc2NS(=O)(=O)C(C)C)c1
4,65,COc1ccc(CCO)c(Nc2nc3ccccc3nc2NS(=O)(=O)c2ccc(NC(=O)CO)cc2)c1
5,59,CCS(=O)(=O)Nc1nc2ccccc2nc1Nc1cc(OC)ccc1CCCO
6,57,COc1ccc(CCO)c(Nc2nc3ccccc3nc2NS(=O)(=O)C2CCCCC2)c1
7,50,COc1ccc(CCCS(C)(=O)=O)c(Nc2nc3ccccc3nc2NS(=O)(=O)c2cn(C)cn2)c1
8,44,CCCS(=O)(=O)Nc1nc2ccccc2nc1Nc1cc(OC)ccc1CCO
9,30,COc1ccc(CC2CCS(=O)(=O)CC2)c(Nc2nc3ccccc3nc2NS(=O)(=O)c2cn(C)cn2)c1
10,28,COc1ccc(CCCO)c(Nc2nc3ccccc3nc2NS(=O)(=O)c2cn(C)c(CN(C)C)n2)c1
11,27,COc1ccc(CCO)c(Nc2nc3ccccc3nc2NS(=O)(=O)c2ccc(NC(=O)CN(C)C)cc2)c1
12,27,COc1ccc(CC2CCOCC2)c(Nc2nc3ccccc3nc2NS(=O)(=O)c2cccnc2)c1
13,26,COc1ccc(CCO)c(Nc2nc3ccccc3nc2NS(=O)(=O)c2ccc(CN(C)C)cc2)c1
14,23,COc1ccc(CCO)c(Nc2nc3ccccc3nc2NS(=O)(=O)c2ccc(F)cc2)c1
15,22,COc1ccc(CCO)c(Nc2nc3ccccc3nc2NS(=O)(=O)c2ccc(C#N)cc2)c1
16,20,COc1ccc(CC2CCC(O)CC2)c(Nc2nc3ccccc3nc2NS(=O)(=O)c2cccnc2)c1 (configuration not stated)
